# Target: T1, inositol monophosphatase (IMPase) (Homo sapiens, UniProt P29218)
# T1 sequence (P29218 1-277): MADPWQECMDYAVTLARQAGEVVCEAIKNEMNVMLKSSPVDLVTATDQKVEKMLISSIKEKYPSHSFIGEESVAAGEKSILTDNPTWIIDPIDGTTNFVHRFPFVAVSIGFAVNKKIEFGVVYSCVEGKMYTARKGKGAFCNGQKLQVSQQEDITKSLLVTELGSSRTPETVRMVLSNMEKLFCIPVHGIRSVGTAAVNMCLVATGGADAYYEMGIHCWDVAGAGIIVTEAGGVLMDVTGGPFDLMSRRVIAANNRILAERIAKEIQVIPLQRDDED
# Experiment: electrospray mass spectrometry of the covalent complex
# Format: biochemical
structure (smiles),measurement,value
O=c1c2ccccc2[se]n1-c1ccccc1 [ebselen],IC50,1.5 µM
